In paper PMC7343282, “Tissue Distribution of Several Series of Cationic Surfactants in Rainbow Trout (Oncorhynchus mykiss) Following Exposure via Water” (Environmental Science & Technology, 2020):

Assays:
[1] = system: rainbow trout (Oncorhynchus mykiss); test: Contribution of tissues to fish body burden; assay type: in vivo; settings: for Contribution of Blood to the fish's body burden / Contribution of Gills to the fish's body burden / Contribution of Liver to the fish's body burden / Contribution of Mucus to the fish's body burden / Contribution of Other tissue (all apart from blood, liver, gills and skin; muscle concentration assumed) to body burden / Contribution of Skin to the fish's body burden: fraction; for % contribution to body burden, Gills / % contribution to body burden, Mucus / % contribution to body burden, Liver / % contribution to body burden, Skin / % contribution to body burden, Muscle: mean across fish, Figure 1; for % contribution to body burden, Liver / % contribution to body burden, Skin / % contribution to body burden, Muscle: Q10, Q14 maximum estimates; for % contribution to body burden, Muscle: includes all tissues not specifically analyzed
From the text: To calculate the quantity of the test chemical in the different tissues, the amount of each tissue in the fish was estimated and multiplied by the concentration in that tissue. The test chemical quantities in the different tissues were then summed to give the body burden in each fish. The total weight of the fish and the weight of the liver and gills were available from the dissection (Table S16). For skin and mucus, the estimated outer surface area of the fish was used. We note that the distinction between mucus and skin is an operational one determined by the extraction method; mucus can be viewed as a more readily extracted fraction of the test chemical residues at the fish surface. The volume of blood was taken as 0.0495 mL g^–1 fish.[30] The remaining tissue (difference between the weight of the whole fish and the weight of liver, gills, skin, and blood) was assumed to have the concentration measured in the muscle. The contribution of the different tissues to the body burden is given for each fish in Table S17, and the average contribution across all fish is plotted in Figure 1. All of the tissues, with the exception of blood, contribute at least 10% of the body burden for at least half of the test chemicals. There is no consistent negative correlation between the fraction of chemical associated with blood, muscle, and liver (tissues where the residue originates entirely from systemic uptake) and alkyl chain length (a measure of hydrophobicity). Thus, although adsorption to fish surfaces appears to play a significant role, its contribution to body burden cannot be simply predicted from surfactant hydrophobicity. In the following, we examine uptake in individual tissues.

[2] = Table S2; cited from earlier work

Compound: CCCCCCCCCN [P9, Nonylamine]
- Contribution of Blood to the fish's body burden ([1]; Fish #1): 0.016
- Contribution of Gills to the fish's body burden ([1]; Fish #1): 0.36
- Contribution of Liver to the fish's body burden ([1]; Fish #1): 0.09
- Contribution of Mucus to the fish's body burden ([1]; Fish #1): 0.38
- Contribution of Other tissue (all apart from blood, liver, gills and skin; muscle concentration assumed) to body burden ([1]; Fish #1): 0.08
- Contribution of Skin to the fish's body burden ([1]; Fish #1): 0.07
- Contribution of Blood to the fish's body burden ([1]; Fish #2): 0.017
- Contribution of Gills to the fish's body burden ([1]; Fish #2): 0.26
- Contribution of Liver to the fish's body burden ([1]; Fish #2): 0.20
- Contribution of Mucus to the fish's body burden ([1]; Fish #2): 0.23
- Contribution of Other tissue (all apart from blood, liver, gills and skin; muscle concentration assumed) to body burden ([1]; Fish #2): 0.14
- Contribution of Skin to the fish's body burden ([1]; Fish #2): 0.15
- Contribution of Blood to the fish's body burden ([1]; Fish #3): 0.021
- Contribution of Liver to the fish's body burden ([1]; Fish #3): 0.17
- Contribution of Mucus to the fish's body burden ([1]; Fish #3): 0.20
- Contribution of Other tissue (all apart from blood, liver, gills and skin; muscle concentration assumed) to body burden ([1]; Fish #3): 0.14
- Contribution of Skin to the fish's body burden ([1]; Fish #3): 0.16
- Contribution of Blood to the fish's body burden ([1]; Fish #4): 0.010
- Contribution of Gills to the fish's body burden ([1]; Fish #4): 0.28
- Contribution of Liver to the fish's body burden ([1]; Fish #4): 0.19
- Contribution of Mucus to the fish's body burden ([1]; Fish #4): 0.28
- Contribution of Other tissue (all apart from blood, liver, gills and skin; muscle concentration assumed) to body burden ([1]; Fish #4): 0.12
- Contribution of Skin to the fish's body burden ([1]; Fish #4): 0.11
- Contribution of Blood to the fish's body burden ([1]; Fish #5): 0.012
- Contribution of Gills to the fish's body burden ([1]; Fish #5): 0.35
- Contribution of Liver to the fish's body burden ([1]; Fish #5): 0.08
- Contribution of Mucus to the fish's body burden ([1]; Fish #5): 0.36
- Contribution of Other tissue (all apart from blood, liver, gills and skin; muscle concentration assumed) to body burden ([1]; Fish #5): 0.12
- Contribution of Skin to the fish's body burden ([1]; Fish #5): 0.09
- Contribution of Blood to the fish's body burden ([1]; Fish #6): 0.018
- Contribution of Gills to the fish's body burden ([1]; Fish #6): 0.26
- Contribution of Liver to the fish's body burden ([1]; Fish #6): 0.08
- Contribution of Mucus to the fish's body burden ([1]; Fish #6): 0.35
- Contribution of Other tissue (all apart from blood, liver, gills and skin; muscle concentration assumed) to body burden ([1]; Fish #6): 0.10
- Contribution of Skin to the fish's body burden ([1]; Fish #6): 0.19
- Contribution of Blood to the fish's body burden ([1]; Mean): 0.016
- Contribution of Gills to the fish's body burden ([1]; Mean): 0.30
- Contribution of Liver to the fish's body burden ([1]; Mean): 0.14
- Contribution of Mucus to the fish's body burden ([1]; Mean): 0.30
- Contribution of Other tissue (all apart from blood, liver, gills and skin; muscle concentration assumed) to body burden ([1]; Mean): 0.12
- Contribution of Skin to the fish's body burden ([1]; Mean): 0.13
- % contribution to body burden, Gills [1]: 30%
- % contribution to body burden, Mucus [1]: 30%
- % contribution to body burden, Liver [1]: 14%
- % contribution to body burden, Skin [1]: 13%
- % contribution to body burden, Muscle [1]: 12%
- pKa [2]: 10.5

Compound: CCCCCCCCCCCCN [P12, Dodecylamine]
- Contribution of Blood to the fish's body burden ([1]; Fish #1): 0.014
- Contribution of Gills to the fish's body burden ([1]; Fish #1): 0.34
- Contribution of Liver to the fish's body burden ([1]; Fish #1): 0.16
- Contribution of Mucus to the fish's body burden ([1]; Fish #1): 0.19
- Contribution of Other tissue (all apart from blood, liver, gills and skin; muscle concentration assumed) to body burden ([1]; Fish #1): 0.15
- Contribution of Skin to the fish's body burden ([1]; Fish #1): 0.14
- Contribution of Blood to the fish's body burden ([1]; Fish #2): 0.015
- Contribution of Gills to the fish's body burden ([1]; Fish #2): 0.24
- Contribution of Liver to the fish's body burden ([1]; Fish #2): 0.22
- Contribution of Mucus to the fish's body burden ([1]; Fish #2): 0.12
- Contribution of Other tissue (all apart from blood, liver, gills and skin; muscle concentration assumed) to body burden ([1]; Fish #2): 0.16
- Contribution of Skin to the fish's body burden ([1]; Fish #2): 0.25
- Contribution of Blood to the fish's body burden ([1]; Fish #3): 0.017
- Contribution of Liver to the fish's body burden ([1]; Fish #3): 0.20
- Contribution of Mucus to the fish's body burden ([1]; Fish #3): 0.11
- Contribution of Other tissue (all apart from blood, liver, gills and skin; muscle concentration assumed) to body burden ([1]; Fish #3): 0.16
- Contribution of Skin to the fish's body burden ([1]; Fish #3): 0.23
- Contribution of Blood to the fish's body burden ([1]; Fish #4): 0.011
- Contribution of Gills to the fish's body burden ([1]; Fish #4): 0.26
- Contribution of Liver to the fish's body burden ([1]; Fish #4): 0.24
- Contribution of Mucus to the fish's body burden ([1]; Fish #4): 0.14
- Contribution of Other tissue (all apart from blood, liver, gills and skin; muscle concentration assumed) to body burden ([1]; Fish #4): 0.16
- Contribution of Skin to the fish's body burden ([1]; Fish #4): 0.19
- Contribution of Blood to the fish's body burden ([1]; Fish #5): 0.010
- Contribution of Gills to the fish's body burden ([1]; Fish #5): 0.32
- Contribution of Liver to the fish's body burden ([1]; Fish #5): 0.12
- Contribution of Mucus to the fish's body burden ([1]; Fish #5): 0.17
- Contribution of Other tissue (all apart from blood, liver, gills and skin; muscle concentration assumed) to body burden ([1]; Fish #5): 0.20
- Contribution of Skin to the fish's body burden ([1]; Fish #5): 0.18
- Contribution of Blood to the fish's body burden ([1]; Fish #6): 0.018
- Contribution of Gills to the fish's body burden ([1]; Fish #6): 0.26
- Contribution of Liver to the fish's body burden ([1]; Fish #6): 0.16
- Contribution of Mucus to the fish's body burden ([1]; Fish #6): 0.18
- Contribution of Other tissue (all apart from blood, liver, gills and skin; muscle concentration assumed) to body burden ([1]; Fish #6): 0.12
- Contribution of Skin to the fish's body burden ([1]; Fish #6): 0.26
- Contribution of Blood to the fish's body burden ([1]; Mean): 0.014
- Contribution of Gills to the fish's body burden ([1]; Mean): 0.28
- Contribution of Liver to the fish's body burden ([1]; Mean): 0.19
- Contribution of Mucus to the fish's body burden ([1]; Mean): 0.15
- Contribution of Other tissue (all apart from blood, liver, gills and skin; muscle concentration assumed) to body burden ([1]; Mean): 0.16
- Contribution of Skin to the fish's body burden ([1]; Mean): 0.21
- % contribution to body burden, Gills [1]: 28%
- % contribution to body burden, Mucus [1]: 15%
- % contribution to body burden, Liver [1]: 19%
- % contribution to body burden, Skin [1]: 21%
- % contribution to body burden, Muscle [1]: 16%
- pKa [2]: 10.5

Compound: CCCCCCCCCCCCCN [P13, tridecylamine]
- Contribution of Blood to the fish's body burden ([1]; Fish #1): 0.013
- Contribution of Gills to the fish's body burden ([1]; Fish #1): 0.27
- Contribution of Liver to the fish's body burden ([1]; Fish #1): 0.24
- Contribution of Mucus to the fish's body burden ([1]; Fish #1): 0.14
- Contribution of Other tissue (all apart from blood, liver, gills and skin; muscle concentration assumed) to body burden ([1]; Fish #1): 0.17
- Contribution of Skin to the fish's body burden ([1]; Fish #1): 0.17
- Contribution of Blood to the fish's body burden ([1]; Fish #2): 0.014
- Contribution of Gills to the fish's body burden ([1]; Fish #2): 0.27
- Contribution of Liver to the fish's body burden ([1]; Fish #2): 0.23
- Contribution of Mucus to the fish's body burden ([1]; Fish #2): 0.10
- Contribution of Other tissue (all apart from blood, liver, gills and skin; muscle concentration assumed) to body burden ([1]; Fish #2): 0.17
- Contribution of Skin to the fish's body burden ([1]; Fish #2): 0.21
- Contribution of Blood to the fish's body burden ([1]; Fish #3): 0.016
- Contribution of Liver to the fish's body burden ([1]; Fish #3): 0.16
- Contribution of Mucus to the fish's body burden ([1]; Fish #3): 0.09
- Contribution of Other tissue (all apart from blood, liver, gills and skin; muscle concentration assumed) to body burden ([1]; Fish #3): 0.24
- Contribution of Skin to the fish's body burden ([1]; Fish #3): 0.20
- Contribution of Blood to the fish's body burden ([1]; Fish #4): 0.013
- Contribution of Gills to the fish's body burden ([1]; Fish #4): 0.35
- Contribution of Liver to the fish's body burden ([1]; Fish #4): 0.15
- Contribution of Mucus to the fish's body burden ([1]; Fish #4): 0.11
- Contribution of Other tissue (all apart from blood, liver, gills and skin; muscle concentration assumed) to body burden ([1]; Fish #4): 0.17
- Contribution of Skin to the fish's body burden ([1]; Fish #4): 0.21
- Contribution of Blood to the fish's body burden ([1]; Fish #5): 0.013
- Contribution of Gills to the fish's body burden ([1]; Fish #5): 0.28
- Contribution of Liver to the fish's body burden ([1]; Fish #5): 0.23
- Contribution of Mucus to the fish's body burden ([1]; Fish #5): 0.09
- Contribution of Other tissue (all apart from blood, liver, gills and skin; muscle concentration assumed) to body burden ([1]; Fish #5): 0.17
- Contribution of Skin to the fish's body burden ([1]; Fish #5): 0.23
- Contribution of Blood to the fish's body burden ([1]; Fish #6): 0.013
- Contribution of Gills to the fish's body burden ([1]; Fish #6): 0.26
- Contribution of Liver to the fish's body burden ([1]; Fish #6): 0.27
- Contribution of Mucus to the fish's body burden ([1]; Fish #6): 0.09
- Contribution of Other tissue (all apart from blood, liver, gills and skin; muscle concentration assumed) to body burden ([1]; Fish #6): 0.17
- Contribution of Skin to the fish's body burden ([1]; Fish #6): 0.20
- Contribution of Blood to the fish's body burden ([1]; Mean): 0.014
- Contribution of Gills to the fish's body burden ([1]; Mean): 0.28
- Contribution of Liver to the fish's body burden ([1]; Mean): 0.21
- Contribution of Mucus to the fish's body burden ([1]; Mean): 0.10
- Contribution of Other tissue (all apart from blood, liver, gills and skin; muscle concentration assumed) to body burden ([1]; Mean): 0.18
- Contribution of Skin to the fish's body burden ([1]; Mean): 0.20
- % contribution to body burden, Gills [1]: 28%
- % contribution to body burden, Mucus [1]: 10%
- % contribution to body burden, Liver [1]: 21%
- % contribution to body burden, Skin [1]: 20%
- % contribution to body burden, Muscle [1]: 18%
- pKa [2]: 10.5
